Experimental data as given in article PMC8327158, “PEGylated AdipoRon derivatives improve glucose and lipid metabolism under insulinopenic and high-fat diet conditions” (Journal of Lipid Research, 2021).
“And” between values parts separate entries of the source, which are not always exact repeats. Identical values can stand only once.

How the values were obtained:
[1] = test system: INS-1 cells; test: Ceramide and dihydroceramide levels in PA-stressed INS-1 cells by mass spectrometry; assay type: cell-based, rat; conditions: 24 h, PA 0.25 mM; for Ceramides 14:0 / Ceramides 16:0 / Ceramides 18:0 / Ceramides 18:1 / Ceramides 20:0 / Ceramides 22:0 / Ceramides 24:0 / Ceramides 24:1 / Ceramides 26:0 / Ceramides 26:1 / Dihydroceramides 16:0 / Dihydroceramides 18:0 / Dihydroceramides 20:0 / Dihydroceramides 22:0 / Dihydroceramides 24:0 / Dihydroceramides 24:1: INS1 cells, three replicates
Experimental: INS-1 cells were seeded at 2 × 10^6/well in a 6-well plate. Cells were treated as follows for 24 h: (i) Control: No FBS or PA (0.25 mM); (ii) Positive Control: 10% FBS + PA (0.25 mM); (iii) Adiponectin (10 nM) + PA (0.25 mM); (iv) AdipoRonPEG6HTL (10 nM) + PA (0.25 mM); (v) AdipoRonPEG6HTL (1 μM) + PA (0.25 mM); (vi) AdipoRonPEG5 (1 μM) + PA (0.25 mM); (vii) AdipoRonPEG5 (20 μM) + PA (0.25 mM). Thereafter, treatment was aspirated, and the cells were washed with cold PBS x 2, scraped off with 1–2 ml PBS, and spun down at 2,500 rpm for 5 min. The supernatant was aspirated, and the pallet was stored at […] for sphingolipid analysis.
Flash-frozen tissue samples (~40 mg) in a borosilicate glass tube were quenched with 2.0 ml of organic extraction solvent (isopropanol: ethyl acetate, 15:85; v:v) and homogenized with a mechanical tissue disruptor. Immediately afterward, 20 μl of organic internal standard solution was added (Ceramide/Sphingoid Internal Standard Mixture II diluted 1:10 in ethanol). The mixture was vortexed for 20 s and sonicated in ultrasonic bath for 40 min at 40°C. The organic extract was allowed to reach room temperature, and 1.5 ml of HPLC water was added and a two-phase liquid-liquid extraction was performed. The upper phase was transferred to a new clean tube, and the lower aqueous phase containing the protein pellet was re-extracted with additional 2.0 ml of organic extraction solvent. The organic phases were combined and dried under nitrogen stream at 40°C. Dried extracts were stored at –80°C until analysis. For analysis of ceramides and sphingoid base species, the dried residues were reconstituted in 200 μl of methanol. Sphingomyelins required a sample dilution of 1:50 in methanol prior to analysis. Serum sphingolipids were extracted using a similar methodology requiring 25 μl of serum.
In total, 5 μl of reconstituted samples was injected into an LC/MS/MS system for the analysis of ceramides and sphingoid bases, and 1 μl injection was required for the analysis of sphingomyelins. The system consisted of a Shimadzu LCMS-8050 triple-quadrupole mass spectrometer with the dual ion source operating in electrospray positive ionization mode. The mass spectrometer is coupled to a Shimadzu Nexera X2 UHPLC system equipped with three solvent delivery modules LC-30AD, three degassing units DGU-20A5R, an autosampler SIL-30ACMP, and a column oven CTO-20AC operating at 40°C (Shimadzu Scientific Instruments, Columbia, MD). Six sphingoid bases (d18:1 sphingosine, d18:1 sphingosine-1-phosphate, d18:1 deoxysphingosine, d18:0 sphinganine, d18:0 sphinganine-1-phosphate, d18:0 deoxysphinganine) and […] ceramide species and their metabolites (C16:0, C16:0 dihydroceramide, C16:0 glucosylceramide, C16:0 lactosylceramide, C16:0 sphingomyelin, C18:0, C18:0 dihydroceramide, C18:0 glucosylceramide, C18:0 sphingomyelin, C18:1, C20:0, C22:0, C22:0 glucosylceramide, C24:0, C24:0 dihydroceramide, C24:0 lactosylceramide, C24:0 sphingomyelin, C24:1, C24:1 dihydroceramide, C24:1 glucosylceramide, C24:1 sphingomyelin). Quantitative analysis of sphingolipids was achieved using selective reaction monitoring scan mode. Lipid separation was achieved by reverse phase LC on a 2.1 (i.d.) × 150 mm Ascentis Express C8, 2.7 micron (Supelco, Bellefonte, PA) column under gradient elution, using three different mobile phases: eluent A consisting of methanol/water/formic acid, 600/400/0.8, v/v/v with 5 mM ammonium formate, eluent B consisting of methanol/formic acid, 1,000/0.8, v/v with 5 mM ammonium formate, and eluent C consisting of CH3OH/CH2Cl2 350/650. The concentration of each metabolite was determined according to calibration curves using the peak-area ratio of analyte versus corresponding internal standard. Calibration curves were generated using serial dilutions of each target analyte.

[2] = test system: STZ-treated Adn−/− mice; test: OGTT and triglyceride tolerance test in STZ-treated adiponectin knockout mice; assay type: in vivo, mouse
Experimental: For oral glucose tolerance test (OGTT), mice were fasted for 4–6 h and subjected to an oral gavage of dextrose (2 mg/g body weight). Tail blood was collected at 0, 15, 30, 60, and 120 min and prepared for serum and assayed for glucose and insulin. For insulin tolerance test (ITT), insulin (0.75 U/kg Humulin R; Eli Lilly, Indianapolis, IN) was administered under fed condition. Serum glucose level was measured at 0, 15, 30, 60, and 90 min time point. Triglyceride tolerance test (TGTT) was initiated by oral gavage of 20% Intralipid (10 μl/g BDW, l141-100 ml, Sigma), and serum was collected at 0, 1, 1.5, 3, and 6 h for triglyceride assay. Glucose, insulin, and triacylglyceride levels were measured using an oxidase-peroxidase assay (Sigma P7119), insulin ELISA (Crystal Chem, Elk Grove village, IL, #15596018), and Infinity Triglycerides Reagent (Thermo Fisher Scientific TR22421).
Streptozotocin (STZ; Sigma S1030) was dissolved by 0.05 M citrate buffer (final; 20 mg/ml). Following 6 h fasting, mice received a single intraperitoneal injection of streptozotocin (200 mg/kg) to induce insulinopenic conditions.

[3] = design: method as in PMID 24172895; conditions: oral administration at 50 mg kg−1 body weight; cited from earlier work

O=C(COc1ccc(C(=O)c2ccccc2)cc1)NC1CCN(Cc2ccc(OCCOCCOCCOCCOCCO)cc2)CC1 [AdipoRonPEG5]
C22:0 and C24:0 ceramides ([1]; 1 μM): significantly reduced
overall dihydroceramide and ceramides levels [1]: markedly lowered
Ceramides 14:0 ([1]; 1 μM): 11.37 pg/mg and 8.34 pg/mg and 8.44 pg/mg
Ceramides 16:0 ([1]; 1 μM): 132.31 pg/mg and 60.25 pg/mg and 97.74 pg/mg
Ceramides 18:0 ([1]; 1 μM): 285.84 pg/mg and 108.83 pg/mg and 172.70 pg/mg
Ceramides 18:1 ([1]; 1 μM): 2.60 pg/mg and 1.60 pg/mg and 2.34 pg/mg
Ceramides 20:0 ([1]; 1 μM): 81.47 pg/mg and 94.91 pg/mg and 71.51 pg/mg
Ceramides 22:0 ([1]; 1 μM): 502.13 pg/mg and 501.01 pg/mg and 352.24 pg/mg
Ceramides 24:0 ([1]; 1 μM): 985.21 pg/mg and 942.22 pg/mg and 715.38 pg/mg
Ceramides 24:1 ([1]; 1 μM): 415.25 pg/mg and 405.60 pg/mg and 306.31 pg/mg
Ceramides 26:0 ([1]; 1 μM): 13.63 pg/mg and 11.39 pg/mg and 10.09 pg/mg
Ceramides 26:1 ([1]; 1 μM): 4.83 pg/mg and 4.31 pg/mg and 3.39 pg/mg
Dihydroceramides 16:0 ([1]; 1 μM): 20.35 pg/mg and 15.35 pg/mg and 22.55 pg/mg
Dihydroceramides 18:0 ([1]; 1 μM): 114.43 pg/mg and 74.94 pg/mg and 73.63 pg/mg
Dihydroceramides 20:0 ([1]; 1 μM): 37.94 pg/mg and 40.41 pg/mg and 33.11 pg/mg
Dihydroceramides 22:0 ([1]; 1 μM): 124.23 pg/mg and 124.34 pg/mg and 96.61 pg/mg
Dihydroceramides 24:0 ([1]; 1 μM): 149.67 pg/mg and 168.38 pg/mg and 120.04 pg/mg
Dihydroceramides 24:1 ([1]; 1 μM): 47.95 pg/mg and 51.21 pg/mg and 34.41 pg/mg
Ceramides 14:0 ([1]; 20 μM): 13.47 pg/mg and 7.61 pg/mg and 10.59 pg/mg
Ceramides 16:0 ([1]; 20 μM): 264.29 pg/mg and 93.09 pg/mg and 72.49 pg/mg
Ceramides 18:0 ([1]; 20 μM): 442.08 pg/mg and 170.74 pg/mg and 152.01 pg/mg
Ceramides 18:1 ([1]; 20 μM): 3.76 pg/mg and 2.21 pg/mg and 1.71 pg/mg
Ceramides 20:0 ([1]; 20 μM): 86.19 pg/mg and 75.99 pg/mg and 78.87 pg/mg
Ceramides 22:0 ([1]; 20 μM): 345.37 pg/mg and 441.95 pg/mg and 372.15 pg/mg
Ceramides 24:0 ([1]; 20 μM): 827.24 pg/mg and 951.19 pg/mg and 835.47 pg/mg
Ceramides 24:1 ([1]; 20 μM): 377.12 pg/mg and 400.62 pg/mg and 388.65 pg/mg
Ceramides 26:0 ([1]; 20 μM): 9.40 pg/mg and 10.66 pg/mg and 9.87 pg/mg
Ceramides 26:1 ([1]; 20 μM): 3.59 pg/mg and 4.43 pg/mg and 3.78 pg/mg
Dihydroceramides 16:0 ([1]; 20 μM): 24.81 pg/mg and 12.98 pg/mg and 10.56 pg/mg
Dihydroceramides 18:0 ([1]; 20 μM): 94.22 pg/mg and 32.83 pg/mg and 48.23 pg/mg
Dihydroceramides 20:0 ([1]; 20 μM): 22.59 pg/mg and 15.72 pg/mg and 18.47 pg/mg
Dihydroceramides 22:0 ([1]; 20 μM): 48.91 pg/mg and 46.89 pg/mg and 48.41 pg/mg
Dihydroceramides 24:0 ([1]; 20 μM): 58.93 pg/mg and 62.29 pg/mg and 62.49 pg/mg
Dihydroceramides 24:1 ([1]; 20 μM): 21.44 pg/mg and 23.79 pg/mg and 23.03 pg/mg
blood TG levels in triglyceride tolerance test [2]: not altered
glucose levels in OGTT [2]: improved the glucose levels

O=C(COc1ccc(C(=O)c2ccccc2)cc1)NC1CCN(Cc2ccccc2)CC1 [AdipoRon]
maximal plasma concentration [3]: 11.8 µM
